We go through 4 compounds from ChEMBL document CHEMBL5608185, “Design, synthesis and evaluation of carbamate-bridged amino acid prodrugs of cycloicaritin with improved antitumor activity, aqueous solubility and phase II metabolic stability” (Eur J Med Chem, 2024).

Series [1] can be described thus: Aqueous solubility of the compound incubated for 72 hrs by shake-flask method. The class given is physicochemical. The note with it: buffer.
Series [2] in a line: Octanol/water partition coefficient, logP of the compound incubated for 72 hrs by HPLC-MS/MS analysis. It is filed as physicochemical.
A short description of series [3]: Chemical stability of the compound assessed as half life at pH 1.2 by HPLC analysis. Particulars: buffer; call rule not given here. The class given is physicochemical.
Series [4] can be described thus: Chemical stability of the compound assessed as half life at pH 4.5 by HPLC analysis. The class given is physicochemical. Particulars: buffer.
Series [5] is described as follows: Chemical stability of the compound assessed as half life at pH 6.8 by HPLC analysis. The class given is physicochemical. The note with it: buffer.
A short description of series [6]: Chemical stability of the compound assessed as half life at pH 7.4 by HPLC analysis. The class given is physicochemical. The note with it: buffer.
Series [7] is described as follows: Chemical stability of the compound in simulated gastric fluid assessed as half life by HPLC analysis. The class given is ADME, physicochemical.
Series [8] can be described thus: Chemical stability of the compound in simulated intestinal fluid assessed as half life by HPLC analysis. It is filed as ADME, physicochemical.
Series [9] in a line: Stability in Sprague-Dawley rat intestine homogenates assessed as half life at pH 7.4 by HPLC analysis. It is filed as ADME, tissue-based.
Series [10] is described as follows: Stability in Sprague-Dawley rat liver homogenates assessed as half life at pH 7.4 by HPLC analysis. It is filed as ADME, tissue-based.
Series [11] is described as follows: Stability in Sprague-Dawley rat blood homogenates assessed as half life at pH 7.4 by HPLC analysis. The class given is ADME, tissue-based.
The nature of series [12]: Stability at phase II in rat liver microsomes assessed as half life at 10 uM measured every 10 mins for 70 mins by HPLC-UV analysis. It is filed as ADME, Microsome.
Series [13] is described as follows: Stability in rat liver microsomes assessed as parent compound remaining at 10 uM measured after 70 mins by HPLC-UV analysis. The note with it: read-out: Stability. It is filed as ADME, Microsome. (Microsomes from liver hold many membrane-bound enzymes, among them those of drug oxidation.)
The nature of series [14]: Drug uptake in human Caco-2 cells over 1 to 100 uM incubated for 10 mins by HPLC-MS/MS analysis. The note with it: caco-2, 10 min, dose 1-100 µM. The class given is ADME, cell-based.
The nature of series [15]: Drug uptake in human Caco-2 cells at 5 uM at pH 6.0 incubated for 10 mins by HPLC-MS/MS analysis. Particulars: caco-2, pH 6, 10 min. The class given is ADME, cell-based.
Series [16] is described as follows: Drug uptake in human Caco-2 cells at 5 uM at pH 7.4 incubated for 10 mins by HPLC-MS/MS analysis. It is filed as ADME, cell-based. Particulars: caco-2, pH 7.4, 10 min.
A short description of series [17]: Drug uptake in human Caco-2 cells at 5 uM incubated for 10 mins in presence of Estrone-3-sulfate by HPLC-MS/MS analysis. The class given is ADME, cell-based. Particulars: caco-2, 10 min.
Series [18] in a line: Drug uptake in human Caco-2 cells at 5 uM incubated for 10 mins in presence of fexofenadine by HPLC-MS/MS analysis. It is filed as ADME, cell-based. Particulars: caco-2, 10 min.
Series [19] is described as follows: Drug uptake in human Caco-2 cells at 5 uM incubated for 10 mins in presence of glycyl-sarcosine by HPLC-MS/MS analysis. The class given is ADME, cell-based. Particulars: caco-2, 10 min.
A further series deals with HepG2. In words: Cytotoxicity against human HepG2 cells assessed as reduction in cell viability incubated for 72 hrs by MTT assay. It is filed as functional, cell-based. Background: Tetrazolium dyes change colour on reduction, which living cells bring about.
The subject of series [20] is 4T1. Kind of series: Cytotoxicity against mouse 4T1 cells assessed as reduction in cell viability incubated for 72 hrs by MTT assay. The class given is functional, cell-based.
Series [21] can be described thus: Cytotoxicity against mouse 3T3 cells assessed as reduction in cell viability incubated for 72 hrs by MTT assay. Particulars: NIH3T3 cells. It is filed as toxicity, cell-based.
Series [22] is described as follows: Cmax in male Sprague-Dawley rat at 20 mg/kg, po measured up to 12 hrs in presence of fexofenadine by HPLC-MS/MS analysis. The class given is ADME, organism-based. The note with it: in vivo, with fexofenadine (dose not stated).
Series [23] in a line: Cmax in male Sprague-Dawley rat at 20 mg/kg, po measured up to 12 hrs in presence of glycyl-sarcosine by HPLC-MS/MS analysis. Particulars: in vivo, with glycyl-sarcosine (dose not stated). The class given is ADME, organism-based.
The nature of series [24]: AUC (0 to t) in male Sprague-Dawley rat at 20 mg/kg, po measured up to 12 hrs in presence of fexofenadine by HPLC-MS/MS analysis. The class given is ADME, organism-based. The note with it: in vivo, with fexofenadine (dose not stated).
Series [25] in a line: AUC (0 to t) in male Sprague-Dawley rat at 20 mg/kg, po measured up to 12 hrs in presence of glycyl-sarcosine by HPLC-MS/MS analysis. It is filed as ADME, organism-based. The note with it: in vivo, with glycyl-sarcosine (dose not stated).
In series [26] the test system is 4T1. In words: Antitumor activity against mouse 4T1 cells xenografted in BALB/c mouse model assessed as reduction in tumor growth administered once daily via oral gavage and measured every two days for 16 days. It is filed as functional, cell-based. Particulars: dose 35-150 mg/kg, time 16.0 day.
A short description of series [27]: Toxicity in BALB/c mouse assessed as effect on body weight at 35 to 150 mg/kg, po measured after 16 days. The class given is organism-based. Particulars: in vivo, 384 h, dose 35-150 mg/kg, time 16 day.
A short description of series [28]: Toxicity in BALB/c mouse assessed as effect on ALT level at 35 to 150 mg/kg, po measured after 16 days. The class given is organism-based. The note with it: in vivo, 384 h, dose 35-150 mg/kg, time 16 day.
Series [29] in a line: Toxicity in BALB/c mouse assessed as effect on AST level at 35 to 150 mg/kg, po measured after 16 days. It is filed as organism-based. The note with it: in vivo, 384 h, dose 35-150 mg/kg, time 16 day.
Series [30] in a line: Toxicity in BALB/c mouse assessed as effect on CREA level at 35 to 150 mg/kg, po measured after 16 days. The class given is organism-based. Particulars: in vivo, 384 h, dose 35-150 mg/kg, time 16 day.
Series [31] in a line: Toxicity in BALB/c mouse assessed as effect on BUN level at 35 to 150 mg/kg, po measured after 16 days. It is filed as organism-based. Particulars: in vivo, 384 h, dose 35-150 mg/kg, time 16 day.
Series [32] is described as follows: Prodrug conversion in Sprague-Dawley rat assessed as Cmax of cycloicaritin metabolite at 20 mg/kg, po measured up to 12 hrs by HPLC-MS/MS analysis. The class given is ADME, organism-based. The note with it: in vivo.
A short description of series [33]: Prodrug conversion in Sprague-Dawley rat assessed as Tmax of cycloicaritin metabolite at 20 mg/kg, po measured up to 12 hrs by HPLC-MS/MS analysis. It is filed as ADME, organism-based. Particulars: in vivo.
Series [34] is described as follows: Prodrug conversion in Sprague-Dawley rat assessed as half life of cycloicaritin metabolite at 20 mg/kg, po measured up to 12 hrs by HPLC-MS/MS analysis. It is filed as ADME, organism-based. Particulars: in vivo.
Series [35] in a line: Prodrug conversion in Sprague-Dawley rat assessed as AUC (0 to t) of cycloicaritin metabolite at 20 mg/kg, po measured up to 12 hrs by HPLC-MS/MS analysis. The note with it: in vivo. It is filed as ADME, organism-based.
Series [36] can be described thus: Cmax in Sprague-Dawley rat at 20 mg/kg, po measured upto 12 hrs by HPLC-MS/MS analysis. It is filed as ADME, organism-based. Particulars: in vivo.
Series [37] in a line: Tmax in Sprague-Dawley rat at 20 mg/kg, po measured upto 12 hrs by HPLC-MS/MS analysis. It is filed as ADME, organism-based. Particulars: in vivo.
Series [38] in a line: Half life in Sprague-Dawley rat at 20 mg/kg, po measured upto 12 hrs by HPLC-MS/MS analysis. It is filed as ADME, organism-based. The note with it: in vivo.
The nature of series [39]: AUC (0 to t) in Sprague-Dawley rat at 20 mg/kg, po measured upto 12 hrs by HPLC-MS/MS analysis. The class given is ADME, organism-based. The note with it: in vivo.
Series [40] can be described thus: Oral bioavailability in rat. The class given is ADME, organism-based. Particulars: in vivo.

For orientation: thermodynamic solubility means the concentration in solution at equilibrium with solid. In general, logP refers to a log measure of how a compound divides between an organic and an aqueous phase. A high value points to higher lipophilicity. Usually half-life stands for how long it takes for the measured level to halve. The IC50 is the point on the concentration scale where inhibition reaches its midpoint. In general, Cmax refers to the highest concentration seen after dosing. The term AUC(0-t) denotes the area under the concentration-time curve up to a stated or last time point. Usually Tmax stands for the time at which the peak concentration occurs. A word on the bioavailability: it is dose-corrected exposure relative to a reference, in per cent.

In brackets after ≈: the same amount, converted by molar mass.

Compound `COc1ccc(-c2oc3c4c(cc(O)c3c(=O)c2OC(=O)N[C@@H](CCC(=O)O)C(=O)O)OC(C)(C)CC4)cc1` showed a thermodynamic solubility at 72 h in series [1] of 1.1 µM (≈ 0.596 µg/mL).

Take `COc1ccc(-c2oc3c4c(cc(O)c3c(=O)c2OC(=O)N[C@@H](CC(C)C)C(=O)O)OC(C)(C)CC4)cc1`: the solubility (thermodynamic) at 72 h in series [1] is 13 µM (≈ 6.84 µg/mL). Further, in series [2], the logP at 72 h worked out at 3.42. Besides, the half-life in series [3], in [4], in series [5], in series [6], in series [7] and in series [8] was over 720 min throughout. Moreover, the half-life in [9] was 520 min; in series [10] it was 516 min; in [11], 30 min; in series [38], 320 min. Further, the half-life at 10 µM in series [12] was over 69.6 min. For the same compound, the remaining at 1.167 h, 10 µM in series [13] came to 76%. Also, the Drug uptake entry in series [14] is reported as “Not Active”; in series [15] it was “Active”; in [16], “Not Active”; in series [17] it was “Not Active”; in [18], “Not Active”; in series [19], “Active”. The Activity entry was “Dose-Dependent Effect” in the series with HepG2; “Dose-Dependent Effect” in the series on 4T1 [20]; “Dose-Dependent Effect” in the series with 4T1 [26]; “Non-Toxic” in series [27]; “Non-Toxic” in [28]; “Non-Toxic” in series [29]. The Activity entry in [30] and in series [31] was “Non-Toxic” throughout. For the same compound, the IC50 at 72 h in series [21] was over 100 µM. In addition, the Cmax in series [22] turned out to be 47.4 nM; in [23], 204 nM; in series [32], 66.6 nM; in [36] it was 156 nM. For the same compound, the AUC(0-t) at 12 h was found to be 0.303 µM·h in series [24], 0.812 µM·h in series [25] and 0.463 µM·h in series [39]. Also, the Tmax in [33] was found to be 54 min; in series [37] it was 1 h. For the same compound, the t1/2 in [34] came to 6.96 h. The AUCt in [35] stood at 158.7 nM·h.

As for `COc1ccc(-c2oc3c(CC=C(C)C)c(O)cc(O)c3c(=O)c2O)cc1` [ICARITIN], the bioavailability in series [40] amounted to 4.3%.

`CC[C@H](C)[C@H](NC(=O)Oc1c(-c2ccc(OC)cc2)oc2c3c(cc(O)c2c1=O)OC(C)(C)CC3)C(=O)O` yielded a thermodynamic solubility at 72 h in [1] of 11.4 µM (≈ 6.01 µg/mL). The same compound displayed a logP at 72 h in [2] of 2.69. Also, the half-life in series [3] was over 720 min; in [4] it was over 720 min; in series [5], over 720 min; in [6], 298 min; in series [7], over 720 min; in series [8], over 720 min. In addition, the half-life in series [9] is 283 min; in [10], 277 min; in series [11], 21.6 min. For the same compound, in [12], the half-life at 10 µM is over 69.6 min. Besides, the remaining at 1.167 h, 10 µM in series [13] was 76%. For the same compound, the Drug uptake entry in series [14], in series [16], in series [17] and in series [18] was “Not Active” in each case.
